The text below walks through data of patent publication US10183943B2, “Heterocyclic compounds and their use in preventing or treating bacterial infections” (MUTABILIS, priority 2015, dated 2019).

One experiment has as its target T1, TEM-1 (Escherichia coli, UniProt P62593).
T1 construct: made in house; host or cells: E. coli
Nature of the experiment: β-lactamase inhibitory activity, determination of IC50 (nitrocefin hydrolysis). Format: biochemical.

Another experiment addresses T2, KPC-2 (Klebsiella pneumoniae, UniProt Q9F663).
T2 construct: made in house; host or cells: E. coli
Described as above. Format: biochemical. As to conditions: class (A); nitrocefin 200 μM, 30 min pre-incubation; read-out: IC50 β-lactamase KPC-2.

A further experiment deals with T3, OXA-1 (Escherichia coli, UniProt P13661).
T3 construct: made in house; host or cells: E. coli
T3 sequence (P13661 26-276): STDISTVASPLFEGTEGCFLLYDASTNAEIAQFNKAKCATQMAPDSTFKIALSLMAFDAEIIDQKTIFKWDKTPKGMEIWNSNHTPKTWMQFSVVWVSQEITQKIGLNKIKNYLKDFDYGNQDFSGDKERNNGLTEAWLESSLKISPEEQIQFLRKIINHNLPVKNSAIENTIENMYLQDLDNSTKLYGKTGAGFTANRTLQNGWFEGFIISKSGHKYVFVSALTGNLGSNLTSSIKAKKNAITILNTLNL
The description is as above. It is filed as biochemical. As to conditions: class (D); nitrocefin 200 μM, 30 min pre-incubation; read-out: IC50 β-lactamase OXA-1.

In another experiment the target is T4, OXA-15 (Pseudomonas aeruginosa, UniProt Q51574).
T4 construct: made in house; host or cells: E. coli
T4 sequence (Q51574 22-275): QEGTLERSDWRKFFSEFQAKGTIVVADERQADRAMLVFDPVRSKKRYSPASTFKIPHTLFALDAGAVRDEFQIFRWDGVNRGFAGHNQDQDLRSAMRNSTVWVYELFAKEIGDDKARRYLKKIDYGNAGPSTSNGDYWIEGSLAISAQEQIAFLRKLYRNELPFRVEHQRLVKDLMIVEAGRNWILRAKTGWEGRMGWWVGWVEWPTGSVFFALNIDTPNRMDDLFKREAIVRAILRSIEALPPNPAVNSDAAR
Put plainly: biochemical.

Experiment [1] concerns E. cloacae UFR70 (TEM-1, CTX-M-15, CMY-2, OXA-1, Porin loss). Put plainly: MIC of compounds alone, broth microdilution. It is filed as cell-based. Conditions: Enterobacter cloacae, read-out: MIC compounds of the invention alone. The procedure, abridged:
(§1)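 MICs of compounds without ceftazidime were measured by CLSI broth microdilution in cation-adjusted Mueller-Hinton broth. Growth was checked by eye after 16-20 h at 35° C.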
On the technique in general: In broth dilution the organism is exposed to a series of concentrations in liquid medium.

The test system of experiment [2] is E. cloacae UFR85 (TEM-1, CTX-M-15, AmpC). Nature of the experiment: MIC of compounds alone, broth microdilution. Format: cell-based. Conditions: Enterobacter cloacae, read-out: MIC compounds of the invention alone. The procedure, abridged: as §1
Experiment [3] relates to K. pneumoniae UFR68 (TEM-1, SHV-11, CTX-M-15, KPC-3). Nature of the experiment: MIC of compounds alone, broth microdilution. It is filed as cell-based. Conditions: Klebsiella pneumoniae, read-out: MIC compounds of the invention alone. The method in brief:
as §1

The subject of experiment [4] is E. cloacae UFR51 (SHV-12, IMP-8). Put plainly: MIC of ceftazidime (CAZ) in combination with compounds at 4 μg/mL, broth microdilution. Format: cell-based. Conditions: strain UFR51; MIC of CAZ with compound fixed at 4 μg/mL. The procedure, abridged:
(§2)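 Compounds were dissolved in DMSO and spotted onto plates. Log-phase cells were then added at 5×10^5 cfu/mL in cation-adjusted Mueller-Hinton broth, incubated 16-20 h at 35° C, and the MIC was scored visually as the lowest growth-inhibiting concentration.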

In another experiment the target is AmpC P. aeruginosa (Pseudomonas aeruginosa, UniProt P24735). Put plainly: β-lactamase inhibitory activity, determination of IC50 (nitrocefin hydrolysis).
Chain of AmpC P. aeruginosa (P24735 27-397): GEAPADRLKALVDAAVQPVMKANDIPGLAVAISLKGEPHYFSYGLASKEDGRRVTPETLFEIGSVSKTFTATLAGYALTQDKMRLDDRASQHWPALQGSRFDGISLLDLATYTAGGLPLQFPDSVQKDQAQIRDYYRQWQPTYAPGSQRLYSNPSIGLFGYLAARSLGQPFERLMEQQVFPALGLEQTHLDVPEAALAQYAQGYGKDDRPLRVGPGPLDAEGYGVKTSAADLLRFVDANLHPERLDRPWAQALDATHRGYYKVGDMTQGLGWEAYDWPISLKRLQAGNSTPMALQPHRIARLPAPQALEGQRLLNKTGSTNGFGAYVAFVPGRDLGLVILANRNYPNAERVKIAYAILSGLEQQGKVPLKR
Experiment [5] relates to E. coli UFR41 (TEM-1, CTX-M-15, CMY-2, OXA-1, NDM-4). Nature of the experiment: MIC of ceftazidime (CAZ) in combination with compounds at 4 μg/mL, broth microdilution. It is filed as cell-based. As to conditions: strain UFR41; MIC of CAZ with compound fixed at 4 μg/mL. The method in brief: as §2
Experiment [6] has as its system E. coli 190317 (TEM-1, SHV-12, CTX-M-15, OXA-1). Nature of the experiment: MIC of compounds alone, broth microdilution. It is filed as cell-based. As to conditions: Escherichia coli, read-out: MIC compounds of the invention alone. The procedure, abridged:
as §1

For experiment [7], the system named is E. cloacae 260508 (TEM-1, CTX-M-15). Put plainly: MIC of compounds alone, broth microdilution. It is filed as cell-based. Conditions: Enterobacter cloacae, read-out: MIC compounds of the invention alone. The method in brief: as §1

Structures can show the parent of a compound that is named as a salt. Where only a bound is given, the exact number is not on record here.

T2 sequence (Q9F663 25-293 limits assumed): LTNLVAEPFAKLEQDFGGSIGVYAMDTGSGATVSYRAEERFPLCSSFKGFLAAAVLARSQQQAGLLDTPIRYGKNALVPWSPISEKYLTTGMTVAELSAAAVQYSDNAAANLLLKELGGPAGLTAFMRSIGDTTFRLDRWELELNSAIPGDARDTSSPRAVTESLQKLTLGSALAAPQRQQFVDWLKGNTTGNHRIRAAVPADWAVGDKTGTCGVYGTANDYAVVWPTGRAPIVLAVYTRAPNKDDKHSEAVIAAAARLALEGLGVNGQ
T1 sequence (P62593 24-286 limits assumed): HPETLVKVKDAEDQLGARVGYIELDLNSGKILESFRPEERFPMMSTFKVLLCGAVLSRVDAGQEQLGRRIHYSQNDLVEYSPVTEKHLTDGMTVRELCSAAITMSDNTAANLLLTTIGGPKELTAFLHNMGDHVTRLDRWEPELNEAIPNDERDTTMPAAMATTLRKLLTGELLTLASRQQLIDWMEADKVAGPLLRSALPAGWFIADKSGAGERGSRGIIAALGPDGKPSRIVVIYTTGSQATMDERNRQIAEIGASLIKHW

As usually defined, the IC50 is the concentration at which inhibition is half-maximal. As a reminder, the MIC is the smallest concentration in the dilution series that meets the test's criterion for growth inhibition. For `Cn1cc(C2=CCN3CC2N(OS(=O)(=O)[O-])C3=O)cnc1=O.[Na+]` (centres unmarked) [Example 15, Sodium [4-(N-methyl-2-oxo-pyrimidin-5-yl)-7-oxo-1,6-diazabicyclo[3.2.1]oct-3-en-6-yl] sulfate], the IC50 at TEM-1 is 9.9 nM; on KPC-2, 110 nM; on OXA-1, 1100 nM; at OXA-15 it was 290 nM; on AmpC P. aeruginosa, 3500 nM. The MIC in [1] is 8 µg/mL; in experiment [2], greater than 32 µg/mL; in experiment [3], greater than 32 µg/mL. Further, the “MIC combination of CAZ and compounds of the invention at 4 μg/mL” value (shortened to “MIC combination”) in experiment [4] was determined as 1 µg/mL.
As for `O=C1N2CC(c3ncco3)=C[C@H](C2)N1OS(=O)(=O)[O-].[Na+]` [Example 44, Sodium [(5R)-3-(oxazol-2-yl)-7-oxo-1,6-diazabicyclo[3.2.1]oct-3-en-6-yl] sulfate], the IC50 is 0.69 nM on TEM-1; 11 nM on KPC-2; 87 nM on OXA-1; 67 nM against OXA-15; 75 nM against AmpC P. aeruginosa. Moreover, the MIC in experiment [2] is 2 µg/mL; in experiment [3], 4 µg/mL. Also, the “MIC combination” value in experiment [4] and in [5] was less than 0.25 µg/mL in each case.
On to `Cn1ncc(C2=CCN3CC2N(OS(=O)(=O)[O-])C3=O)cc1=O.[Na+]` (centres unmarked) [Example 19, Sodium [4-(1-methyl-6-oxo-pyridazin-4-yl)-7-oxo-1,6-diazabicyclo[3.2.1]oct-3-en-6-yl] sulfate], for which the concentration for half-maximal inhibition (IC50) on TEM-1 stood at 4 nM; on KPC-2, 46 nM; at OXA-1 it was 380 nM; against OXA-15, 75 nM; on AmpC P. aeruginosa, 1800 nM. Also, the MIC in experiment [1] was 16 µg/mL; in experiment [2], greater than 32 µg/mL; in experiment [6], 2 µg/mL; in experiment [3], greater than 32 µg/mL. Also, the “MIC combination” value in [4] was less than 0.25 µg/mL; in experiment [5] it was greater than 64 µg/mL.
On to `O=C1N2CC=C(c3cnco3)C(C2)N1OS(=O)(=O)[O-].[Na+]` (centres unmarked) [Example 3, Sodium [4-(oxazol-5-yl)-7-oxo-1,6-diazabicyclo[3.2.1]oct-3-en-6-yl]sulfate], for which the IC50 against TEM-1 came to 3.4 nM; on KPC-2 it was 290 nM; at OXA-1, 210 nM; at OXA-15 it was 33 nM; on AmpC P. aeruginosa, 2000 nM. The MIC in experiment [7] was 16 µg/mL; in [1] it was 8 µg/mL; in [2] it was greater than 32 µg/mL; in experiment [3], greater than 32 µg/mL. Further, the “MIC combination” value is less than 0.25 µg/mL in [4] and greater than 64 µg/mL in experiment [5].
Turning to `O=C1N2CC(c3ncco3)=CC(C2)N1OS(=O)(=O)[O-].[Na+]` (centres unmarked) [Example 25, Sodium [3-(oxazol-2-yl)-7-oxo-1,6-diazabicyclo[3.2.1]oct-3-en-6-yl]sulfate], the IC50 against TEM-1 amounted to 3.8 nM; at KPC-2, 30 nM; at OXA-1, 310 nM; on OXA-15, 300 nM; against AmpC P. aeruginosa it was 97 nM. For the same compound, the MIC turned out to be 4 µg/mL in experiment [7], 2 µg/mL in experiment [1] and 2 µg/mL in experiment [2]. Besides, the “MIC combination” value in [4] was less than 0.25 µg/mL; in experiment [5], 0.25 µg/mL.
In the case of `NCc1cnc(C2=CC3CN(C2)C(=O)N3OS(=O)(=O)O)s1` (centres unmarked) [Example 38, [3-[5-(aminomethyl)thiazol-2-yl]-7-oxo-1,6-diazabicyclo[3.2.1]oct-3-en-6-yl] hydrogen sulfate], the IC50 was determined as 0.7 nM at TEM-1; 19 nM on KPC-2; 630 nM on OXA-1; 280 nM at OXA-15; 320 nM at AmpC P. aeruginosa. Moreover, the results for the MIC in [7] and in experiment [6] were greater than 32 µg/mL and 1 µg/mL, respectively. Besides, the “MIC combination” value was less than 0.25 µg/mL in experiment [4] and “<=0.25 μg/mL” in experiment [5].
